Legend:
[1] = biological target: T1, ovine COX-1 (Ovis aries, UniProt P05979); assay: In vitro COX-1 inhibition assay (colorimetric COX inhibitor screening kit, Cayman); type: biochemical; conditions: mean of three determinations
T1 construct: purchased Cayman Chemicals Inc. 560131
T1 sequence (P05979 25-600): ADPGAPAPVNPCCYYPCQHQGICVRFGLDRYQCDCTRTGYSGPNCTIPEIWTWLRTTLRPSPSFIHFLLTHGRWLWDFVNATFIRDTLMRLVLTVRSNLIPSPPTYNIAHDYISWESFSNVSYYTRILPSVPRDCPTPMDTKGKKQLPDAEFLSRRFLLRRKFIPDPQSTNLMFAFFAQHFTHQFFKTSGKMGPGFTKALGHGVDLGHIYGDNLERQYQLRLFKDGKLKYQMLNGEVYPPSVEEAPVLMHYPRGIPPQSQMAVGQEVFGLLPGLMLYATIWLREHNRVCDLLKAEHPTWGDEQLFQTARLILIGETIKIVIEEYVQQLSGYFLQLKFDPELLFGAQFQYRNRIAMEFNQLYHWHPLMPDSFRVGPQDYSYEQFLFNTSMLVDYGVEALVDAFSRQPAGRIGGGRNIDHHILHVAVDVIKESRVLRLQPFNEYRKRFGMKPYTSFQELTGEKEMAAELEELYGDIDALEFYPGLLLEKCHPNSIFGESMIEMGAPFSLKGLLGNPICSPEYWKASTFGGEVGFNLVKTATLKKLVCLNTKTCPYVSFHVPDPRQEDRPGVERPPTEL
Method: Both assays were carried out in compliance with the manufacturer’s instructions and in accordance to prior studies[29]^,[33].
IC50 values (μM) and selectivity indices (SI) were calculated.

[2] = system: IL-1β; assay: IL-1β protein expression by Western blotting; type: cell-based, human; conditions: 100 μM compound; PMA 24 h then LPS 72 h; normalised to GAPDH
Method: THP-1 monocytes were exposed to 100 μM of the test compounds, activated with 25 nM PMA for 24 h followed by 100 ng/ml LPS for 72 h. At the end of the incubation period, cells were harvested, proteins were extracted and SDS-PAGE electrophoresis, blotting, and antibody probing were conducted as described previously. Primary rabbit polyclonal antibodies to IL-1β, procaspase-3, and GAPDH were obtained from Abcam (Cambridge, UK). Clarity Western ECL substrate (BioRad, Hercules, CA, USA) was used to obtain a chemiluminescence signal captured by a Chemidoc imaging system (BioRad, Hercules, CA, USA). Band density was estimated using ImageJ software (National Institutes of Health, Bethesda, MD) and normalised to the GAPDH band density as a loading control.

COc1ccc(-c2nn(-c3ccccc3)cc2/C=C2\SC(N3CCCCC3)=NC2=O)cc1 [Compound 7, (Z)-5-((3-(4-methoxyphenyl)-1-phenyl-1H-pyrazol-4-yl)methylene)-2-(piperidin-1-yl)thiazol-4(5H)-one]
IC50 [1]: 10.3 µM
IL-1β expression in PMA/LPS-challenged THP-1 [2]: attenuating IL-1β production

Reference: PMC7901699, “Challenging inflammatory process at molecular, cellular and in vivo levels via some new pyrazolyl thiazolones” (Journal of Enzyme Inhibition and Medicinal Chemistry, 2021)
